Assay results: PubChem BioAssay AID256 (DTP/NCI, 2004)
Toxic doses and inconclusive results are not listed. The calls were made as follows: active = survival T/C of 150% or more; inactive = T/C below 125% in these data.

Tested on: CD2F1 mice, L1210 leukemia ip, survival T/C
Assay: NCI In Vivo Anticancer Drug Screen. Data for tumor model L1210 Leukemia (intraperitoneal) in CD2F1 (CDF1) mice
Settings: higher = longer survival
Outline: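 Antitumor effect is scored in animals hosting a serially transplanted tumor. Values compare compound-dosed animals against vehicle-only controls as a simple quotient.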

[1] = endpoint: mean survival time, dose: 100.0 mg/kg/injection, schedule: Q04DX003 (ip), vehicle: saline
[2] = endpoint: mean survival time, dose: 200.0 mg/kg/injection, schedule: Q04DX003 (ip), vehicle: saline
[3] = endpoint: mean survival time, dose: 400.0 mg/kg/injection, schedule: Q04DX003 (ip), vehicle: saline
[4] = endpoint: mean survival time, dose: 100.0 mg/kg/injection, schedule: Q01DX009 (ip), vehicle: saline with Tween-80
[5] = endpoint: mean survival time, dose: 200.0 mg/kg/injection, schedule: Q01DX009 (ip), vehicle: saline with Tween-80
[6] = endpoint: mean survival time, dose: 400.0 mg/kg/injection, schedule: Q01DX009 (ip), vehicle: saline with Tween-80
[7] = endpoint: mean survival time, dose: 100.0 mg/kg/injection, schedule: Q01DX001 (ip), vehicle: saline with Tween-80
[8] = endpoint: mean survival time, dose: 200.0 mg/kg/injection, schedule: Q01DX001 (ip), vehicle: saline with Tween-80
[9] = endpoint: mean survival time, dose: 100.0 mg/kg/injection, schedule: Q01DX001 (ip), vehicle: saline
[10] = endpoint: mean survival time, dose: 200.0 mg/kg/injection, schedule: Q01DX001 (ip), vehicle: saline
[11] = endpoint: mean survival time, dose: 400.0 mg/kg/injection, schedule: Q01DX001 (ip), vehicle: saline
[12] = endpoint: mean survival time, dose: 50.0 mg/kg/injection, schedule: Q01DX009 (ip), vehicle: saline with Tween-80
[13] = endpoint: mean survival time, dose: 100.0 mg/kg/injection, schedule: Q04DX003 (ip), vehicle: saline with Tween-80
[14] = endpoint: mean survival time, dose: 200.0 mg/kg/injection, schedule: Q04DX003 (ip), vehicle: saline with Tween-80
[15] = endpoint: mean survival time, dose: 400.0 mg/kg/injection, schedule: Q04DX003 (ip), vehicle: saline with Tween-80
[16] = endpoint: mean survival time, dose: 400.0 mg/kg/injection, schedule: Q01DX001 (ip), vehicle: saline with Tween-80

Measured: T/C

COc1ccc(-c2nc(N)nc3c2CN(CCCC(=O)O)C3=O)cc1
inactive: [1] 98 % of control | [2] 98 % of control | [3] 96 % of control

C=CCN1/C(=C/C=C\c2sc3ccccc3[n+]2CC=C)Sc2ccccc21
inactive: endpoint: mean survival time, dose: 2.0 mg/kg/injection, schedule: Q04DX003 (ip), vehicle: saline 110 % of control | endpoint: mean survival time, dose: 4.0 mg/kg/injection, schedule: Q04DX003 (ip), vehicle: saline 115 % of control

O=C(N/N=C/c1cccc(Cl)c1)c1ccccc1
inactive: [4] 94 % of control | endpoint: mean survival time, dose: 100.0 mg/kg/injection, schedule: Q04DX003 (ip), vehicle: Klucel (hydroxypropylcellulose) (HPC) 96 % of control | [5] 94 % of control | endpoint: mean survival time, dose: 200.0 mg/kg/injection, schedule: Q04DX003 (ip), vehicle: Klucel (hydroxypropylcellulose) (HPC) 94 % of control | [6] 96 % of control | endpoint: mean survival time, dose: 400.0 mg/kg/injection, schedule: Q04DX003 (ip), vehicle: Klucel (hydroxypropylcellulose) (HPC) 94 % of control

C[N+]([O-])(C/C=C/c1ccccc1)c1ccccc1 (stereo not given)
inactive: endpoint: mean survival time, dose: 75.0 mg/kg/injection, schedule: Q01DX001 (ip), vehicle: saline 101 % of control | endpoint: mean survival time, dose: 150.0 mg/kg/injection, schedule: Q01DX001 (ip), vehicle: saline 97 % of control | endpoint: mean survival time, dose: 300.0 mg/kg/injection, schedule: Q01DX001 (ip), vehicle: saline 98 % of control

CCCCCCCCCCCCCCCCN(C)c1ccc(C(=O)OC)cc1[N+](=O)[O-]
inactive: endpoint: mean survival time, dose: 100.0 mg/kg/injection, schedule: Q01DX009 (ip), vehicle: Klucel (hydroxypropylcellulose) (HPC) 97 % of control | [1] 98 % of control | endpoint: mean survival time, dose: 200.0 mg/kg/injection, schedule: Q01DX009 (ip), vehicle: Klucel (hydroxypropylcellulose) (HPC) 101 % of control | [2] 91 % of control | endpoint: mean survival time, dose: 400.0 mg/kg/injection, schedule: Q01DX009 (ip), vehicle: Klucel (hydroxypropylcellulose) (HPC) 97 % of control | [3] 95 % of control

ClCC(Cl)C(Cl)CCl (stereo not given)
inactive: endpoint: mean survival time, dose: 50.0 mg/kg/injection, schedule: Q01DX001 (ip), vehicle: saline with Tween-80 95 % of control | [7] 109 % of control | [8] 86 % of control

CC(=O)Oc1ccccc1N(C(C)=O)S(=O)(=O)c1ccc(C)cc1
inactive: endpoint: mean survival time, dose: 50.0 mg/kg/injection, schedule: Q04DX003 (ip), vehicle: saline 98 % of control | [9] 106 % of control | [1] 101 % of control | [10] 108 % of control | [2] 101 % of control | [11] 100 % of control

c1ccc2c(c1)[nH]c1c2c[n+]2c3c(cccc13)CCC2
inactive: endpoint: mean survival time, dose: 6.25 mg/kg/injection, schedule: Q01DX001 (ip), vehicle: saline 101 % of control | endpoint: mean survival time, dose: 12.5 mg/kg/injection, schedule: Q01DX001 (ip), vehicle: saline 107 % of control

COc1ccc(/C=C2\OC(=O)C(Cc3cc(Cl)c4c(c3)OCO4)C2(O)C(C)C)cc1 (stereo not given)
inactive: endpoint: median survival time, dose: 6.13 mg/kg/injection, schedule: Q01DX005 (ip), vehicle: Klucel (hydroxypropylcellulose) (HPC) 95 % of control | endpoint: median survival time, dose: 12.25 mg/kg/injection, schedule: Q01DX005 (ip), vehicle: Klucel (hydroxypropylcellulose) (HPC) 96 % of control | endpoint: median survival time, dose: 24.5 mg/kg/injection, schedule: Q01DX005 (ip), vehicle: Klucel (hydroxypropylcellulose) (HPC) 103 % of control | endpoint: median survival time, dose: 49.0 mg/kg/injection, schedule: Q01DX005 (ip), vehicle: Klucel (hydroxypropylcellulose) (HPC) 91 % of control

CCCCCCCCCCCCCCCCS(=O)CC(O)COC(=O)c1ccc(C(=O)OCC(O)CS(=O)CCCCCCCCCCCCCCCC)cc1 (stereo not given)
inactive: endpoint: mean survival time, dose: 12.5 mg/kg/injection, schedule: Q01DX009 (ip), vehicle: saline + Tween-80 + alcohol 96 % of control | endpoint: mean survival time, dose: 12.5 mg/kg/injection, schedule: Q01DX009 (ip), vehicle: saline + alcohol 91 % of control | endpoint: mean survival time, dose: 25.0 mg/kg/injection, schedule: Q01DX009 (ip), vehicle: saline + Tween-80 + alcohol 88 % of control | endpoint: mean survival time, dose: 25.0 mg/kg/injection, schedule: Q01DX009 (ip), vehicle: saline + alcohol 105 % of control | endpoint: mean survival time, dose: 50.0 mg/kg/injection, schedule: Q01DX009 (ip), vehicle: saline + Tween-80 + alcohol 90 % of control | endpoint: mean survival time, dose: 50.0 mg/kg/injection, schedule: Q01DX009 (ip), vehicle: saline + alcohol 105 % of control | endpoint: mean survival time, dose: 100.0 mg/kg/injection, schedule: Q01DX009 (ip), vehicle: saline + Tween-80 + alcohol 107 % of control | endpoint: mean survival time, dose: 100.0 mg/kg/injection, schedule: Q01DX009 (ip), vehicle: saline + alcohol 91 % of control | endpoint: mean survival time, dose: 200.0 mg/kg/injection, schedule: Q01DX009 (ip), vehicle: saline + Tween-80 + alcohol 107 % of control | endpoint: mean survival time, dose: 200.0 mg/kg/injection, schedule: Q01DX009 (ip), vehicle: saline + alcohol 97 % of control | endpoint: mean survival time, dose: 400.0 mg/kg/injection, schedule: Q01DX009 (ip), vehicle: saline + alcohol 105 % of control

BrC/C(=N\N1CCCCCC1)c1ccc(-c2ccccc2)cc1
inactive: [9] 92 % of control | [10] 93 % of control | [11] 94 % of control

Cc1cc2[nH]c(=O)[nH]c2cc1C
inactive: [12] 103 % of control | [4] 94 % of control | [5] 102 % of control

CNC(=O)OCCN(C)OC
inactive: [1] 95 % of control | [2] 98 % of control | [3] 93 % of control

NCCCC(N)C(=O)O (stereo not given)
inactive: endpoint: median survival time, dose: 3.13 mg/kg/injection, schedule: Q04DX002 (ip), vehicle: saline 111 % of control | endpoint: median survival time, dose: 6.25 mg/kg/injection, schedule: Q04DX002 (ip), vehicle: saline 117 % of control | endpoint: median survival time, dose: 12.5 mg/kg/injection, schedule: Q04DX002 (ip), vehicle: saline 108 % of control | endpoint: median survival time, dose: 50.0 mg/kg/injection, schedule: Q04DX002 (ip), vehicle: saline 105 % of control

O=S(=O)(O)SCCN1CCOCC1
inactive: endpoint: mean survival time, dose: 100.0 mg/kg/injection, schedule: Q01DX009 (ip), vehicle: saline 103 % of control | [13] 101 % of control | endpoint: mean survival time, dose: 200.0 mg/kg/injection, schedule: Q01DX009 (ip), vehicle: saline 106 % of control | [14] 101 % of control | endpoint: mean survival time, dose: 400.0 mg/kg/injection, schedule: Q01DX009 (ip), vehicle: saline 104 % of control | [15] 100 % of control

CC(=O)Nc1nc(CCl)cs1
inactive: endpoint: mean survival time, dose: 100.0 mg/kg/injection, schedule: Q01DX001 (ip), vehicle: Klucel (hydroxypropylcellulose) (HPC) 92 % of control | endpoint: mean survival time, dose: 200.0 mg/kg/injection, schedule: Q01DX001 (ip), vehicle: Klucel (hydroxypropylcellulose) (HPC) 87 % of control

COc1cc(NCCCNCC(C)(C)C)c2ncccc2c1
inactive: endpoint: mean survival time, dose: 1.25 mg/kg/injection, schedule: Q01DX009 (ip), vehicle: Klucel (hydroxypropylcellulose) (HPC) 98 % of control | endpoint: mean survival time, dose: 2.5 mg/kg/injection, schedule: Q01DX009 (ip), vehicle: Klucel (hydroxypropylcellulose) (HPC) 105 % of control | endpoint: mean survival time, dose: 5.0 mg/kg/injection, schedule: Q01DX009 (ip), vehicle: Klucel (hydroxypropylcellulose) (HPC) 100 % of control | endpoint: mean survival time, dose: 10.0 mg/kg/injection, schedule: Q01DX009 (ip), vehicle: Klucel (hydroxypropylcellulose) (HPC) 105 % of control

OC1CCCCCCCCC1Cl (stereo not given)
inactive: [4] 88 % of control | [13] 94 % of control | [14] 93 % of control | [15] 96 % of control

O=[C-]CC(=O)c1ccccc1.O=[C-]CC(=O)c1ccccc1.[Fe+2]
inactive: [7] 95 % of control | [8] 87 % of control | [16] 89 % of control

Cc1cc(Cl)ccc1NC(=O)Nc1nccs1
inactive: endpoint: mean survival time, dose: 12.5 mg/kg/injection, schedule: Q01DX009 (ip), vehicle: saline with Tween-80 98 % of control | endpoint: mean survival time, dose: 25.0 mg/kg/injection, schedule: Q01DX009 (ip), vehicle: saline with Tween-80 98 % of control | [12] 95 % of control | [4] 95 % of control | [5] 100 % of control

O=C1c2cc(Cl)ccc2-c2c(Cl)cc(Cl)cc21
inactive: [12] 92 % of control | [4] 101 % of control | [5] 89 % of control

CC(=O)OCCCC(C)Nc1ccnc2cc(Cl)ccc12 (stereo not given)
inactive: [12] 100 % of control | [4] 96 % of control | [13] 96 % of control | [5] 96 % of control | [14] 98 % of control

Cc1ccc(S(=O)(=O)N(C)N=O)cc1
inactive: [4] 89 % of control | [13] 97 % of control | [5] 106 % of control | [14] 102 % of control | [6] 102 % of control | [15] 107 % of control

O=C(COc1cccc(Cl)c1)NCc1ccc(NC(=O)c2ccc(S(=O)(=O)F)cc2)cc1
inactive: [7] 96 % of control | [8] 91 % of control | [16] 87 % of control
